# Patent publication US20250296971A1, “GASTRIC INHIBITORY PEPTIDE RECEPTOR LIGANDS” (priority 2021, published 2025)
# Read-outs that look alike come from different tables or passages of the source. *1 amine or outer side, *2 acyl side, *3 side chain or, on linkers, in order; H or OH if unused. Where a SMILES comes first, the peptide text is derived from it. Bridges are numbered along the chain shown (N, C = ends). [ ]: non-standard residue; d: D form. The star is where a group is joined. X3 = O=C(O)CN1CCN(CC(=O)O)CCN(CC(=O)NCCCOCCOCCOCCCN*)CCN(CC(=O)O)CC1; NH(1-deoxy-D-glucityl) = OC[C@@H](O)[C@@H](O)[C@H](O)[C@@H](O)CN*; DOTA = O=C(O)CN1CCN(CC(=O)O)CCN(CC(=O)*)CCN(CC(=O)O)CC1; Maleimide(3,4-diyl) = O=C1NC(=O)C([*:2])=C1[*:1]; Trp(5-Br) = N[C@@H](Cc1c[nH]c2ccc(Br)cc12)C(=O)O; Trp(5-Cl) = N[C@@H](Cc1c[nH]c2ccc(Cl)cc12)C(=O)O; Pyridine(2,6-diCH2) = c1cc(C[*:1])nc(C[*:2])c1; Phe(2-Cl) = N[C@@H](Cc1ccccc1Cl)C(=O)O; Pro(4R-NH2) = N[C@H]1CN[C@H](C(=O)O)C1; 1Nal = N[C@@H](Cc1cccc2ccccc12)C(=O)O; mXylylene = c1cc(C[*:1])cc(C[*:2])c1; Glutaryl = O=C(CCCC(=O)[*:2])[*:1]; X7 = c1cc(CSCCN[*:2])cc(C[*:1])c1; Hyp = O=C(O)[C@@H]1C[C@@H](O)CN1; X1 = O=C(CN1CCC(N[*:1])CC1)[*:2]; 2Thi = N[C@@H](Cc1cccs1)C(=O)O; Suc = O=C(CCC(=O)[*:2])[*:1]; hLeu = CC(C)CC[C@H](N)C(=O)O; dDab = NCC[C@@H](N)C(=O)O; hCys = N[C@@H](CCS)C(=O)O; Api = NC1(C(=O)O)CCNCC1; Thp = NC1(C(=O)O)CCOCC1; Aib = CC(C)(N)C(=O)O
# Target: T1, GIPR (CHO-K1-hGIPR cells) (Homo sapiens, UniProt P48546)
# T1 construct: host or cells: CHO-K1
# T1 sequence (P48546 22-466): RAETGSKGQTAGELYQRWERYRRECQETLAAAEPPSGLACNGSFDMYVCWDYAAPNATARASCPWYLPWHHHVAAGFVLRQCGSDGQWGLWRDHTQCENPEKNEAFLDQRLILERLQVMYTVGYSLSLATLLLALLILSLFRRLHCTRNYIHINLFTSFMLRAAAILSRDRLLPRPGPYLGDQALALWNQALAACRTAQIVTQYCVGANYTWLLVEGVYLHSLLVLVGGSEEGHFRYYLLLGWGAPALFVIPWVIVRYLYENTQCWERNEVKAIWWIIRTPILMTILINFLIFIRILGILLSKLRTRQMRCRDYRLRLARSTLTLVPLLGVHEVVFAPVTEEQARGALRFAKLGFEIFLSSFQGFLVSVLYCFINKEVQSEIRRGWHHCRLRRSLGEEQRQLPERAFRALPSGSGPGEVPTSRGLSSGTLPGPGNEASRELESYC
# Assay: FACS binding assay
# How it was run: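 Steps: detach CHO-K1-hGIPR cells (Accutase); wash in PBS/1% FCS; adjust to 500.000 cells per mL; wash ice-cold; incubate APC-streptavidin 1 μg/mL, 30 min on ice; wash twice; acquire on flow cytometer; fit MFI-concentration data with a four-parameter logistic model.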
# [1] = competition with 20 nM GIP-057, 4° C. for 1 hour, read-out: pIC50 Category (converted)
# [2] = competition with 20 nM GIP-057, 4° C., 1 hour, read-out: pIC50 Category (converted)
Compound,IC50 [1] [µM],IC50 [2] [µM],further results
"CC[C@H](C)[C@@H]1NC(=O)[C@H](CC(C)C)NC(=O)C2(CCOCC2)NC(=O)[C@@H](NC(=O)[C@@H](CC(C)C)NC(=O)[C@H](CCC(=O)O)NC(=O)[C@@H]2C[C@@H](O)CN2C(=O)[C@H](Cc2c[nH]c3ccc(Cl)cc23)NC(=O)[C@H](Cc2ccccc2Cl)NC(=O)[C@H](CC(=O)O)NC(=O)CCC(=O)NCCCOCCOCCOCCCNC(=O)CN2CCN(CC(=O)O)CCN(CC(=O)O)CCN(CC(=O)O)CC2)CSCc2cccc(n2)CSC[C@@H](C(N)=O)NC1=O [GIP-387, DOTA-Ttds-Asp-Ocf-5Clw-Hyp-Glu-leu-[Cys(2Lut)-Thp-Leu-Ile-Cys]-NH2] ({X3-Suc}-D[Phe(2-Cl)][Trp(5-Cl)][Hyp]E[dL]C[Thp]LIC-NH2; linker 7-11 via Pyridine(2,6-diCH2))",0.01 to 0.0794,,
"CC[C@H](C)[C@@H]1NC(=O)[C@H](CC(C)C)NC(=O)C2(CCN(C(=O)CN3CCN(CC(=O)O)CCN(CC(=O)O)CCN(CC(=O)O)CC3)CC2)NC(=O)[C@@H](NC(=O)[C@@H](CC(C)C)NC(=O)[C@H](CCC(=O)O)NC(=O)[C@@H]2C[C@@H](N)CN2C(=O)[C@H](Cc2c[nH]c3ccc(Cl)cc23)NC(=O)[C@H](Cc2c[nH]c3ccccc23)NC(=O)[C@H](CC(=O)O)NC(C)=O)CSCc2cccc(n2)CSC[C@@H](C(N)=O)NC1=O [GIP-123, Ac-Asp-Trp-5Clw-Tap-Glu-leu-[Cys(2Lut)-Apc(DOTA)-Leu-Ile-Cys]-NH2] (Ac-DW[Trp(5-Cl)][Pro(4R-NH2)]E[dL]C[Api](DOTA)LIC-NH2; linker 7-11 via Pyridine(2,6-diCH2))",,< 0.01,
"CC[C@H](C)[C@@H]1NC(=O)[C@H](CC(C)C)NC(=O)C2(CCN(C(=O)CN3CCN(CC(=O)O)CCN(CC(=O)O)CCN(CC(=O)O)CC3)CC2)NC(=O)[C@@H](NC(=O)[C@@H](CC(C)C)NC(=O)[C@H](CCC(=O)O)NC(=O)[C@@H]2C[C@@H](O)CN2C(=O)[C@H](Cc2c[nH]c3ccc(Cl)cc23)NC(=O)[C@H](Cc2c[nH]c3ccccc23)NC(=O)[C@H](CC(=O)O)NC(=O)CN2CCC(NC(=O)CCCC(=O)NC[C@H](O)[C@@H](O)[C@H](O)[C@H](O)CO)CC2)CSCc2cccc(n2)CSC[C@@H](C(=O)N[C@H](CCCCNC(=O)CCOCCOCCOCCOCCOCCOCCOCCOCCOCCOCCOCCOCCOCCOCCOCCOCCOCCOCCOCCOCCOCCOCCOCCOCCOCCOCCOCCOCCOCCOCCOCCOCCOCCOCCOCCOCCOC)C(N)=O)NC1=O [GIP-039, AGLU-Glutar-APAc-Asp-Trp-5Clw-Hyp-Glu-leu-[Cys(2Lut)-Apc(DOTA)-Leu-Ile-Cys]-lys(MeO36PEG)-NH2]",,0.01 to 0.0794,
"CC[C@H](C)[C@@H]1NC(=O)[C@H]([C@@H](C)CC)NC(=O)C2(CCOCC2)NC(=O)[C@@H](NC(=O)[C@@H](CC(C)C)NC(=O)[C@H](CCC(=O)O)NC(=O)[C@@H]2C[C@@H](O)CN2C(=O)[C@H](Cc2c[nH]c3ccc(Cl)cc23)NC(=O)[C@H](Cc2c[nH]c3ccccc23)NC(=O)[C@H](CC(=O)O)NC(C)=O)CSCc2cccc(n2)CSC[C@@H](C(N)=O)NC1=O [GIP-229, Ac-Asp-Trp-5Clw-Hyp-Glu-leu-[Cys(2Lut)-Thp-Ile-Ile-Cys]-NH2] (Ac-DW[Trp(5-Cl)][Hyp]E[dL]C[Thp]IIC-NH2; linker 7-11 via Pyridine(2,6-diCH2))",,< 0.01,
"CC[C@H](C)[C@@H]1NC(=O)[C@H](CCC(C)C)NC(=O)C(C)(C)NC(=O)[C@@H](NC(=O)[C@H](CC(C)C)NC(=O)[C@H](CCC(=O)O)NC(=O)[C@@H]2CCCN2C(=O)[C@H](Cc2c[nH]c3ccccc23)NC(=O)[C@H](Cc2c[nH]c3ccccc23)NC(=O)CCC(=O)O)CSCc2cccc(c2)CSC[C@@H](C(N)=O)NC1=O [GIP-260, HO-Succinyl-Trp-Trp-Pro-Glu-Leu-[Cys(3MeBn)-Aib-Hle-Ile-Cys]-NH2] (Suc-WWPELC[Aib][hLeu]IC-NH2; linker 6-10 via mXylylene)",0.01 to 0.0794,,
"CC[C@H](C)[C@@H]1NC(=O)[C@H](CC(C)C)NC(=O)C(C)(C)NC(=O)[C@@H](NC(=O)[C@H](Cc2cccs2)NC(=O)[C@H](CCC(=O)O)NC(=O)[C@@H]2CCCN2C(=O)[C@H](Cc2cccc3ccccc23)NC(=O)[C@H](Cc2c[nH]c3ccccc23)NC(=O)[C@H](CC(=O)O)NC(C)=O)CSCc2cccc(c2)CSC[C@@H](C(N)=O)NC1=O [GIP-343, Ac-Asp-Trp-1Ni-Pro-Glu-Thi-[Cys(3MeBn)-Aib-Leu-Ile-Cys]-NH2] (Ac-DW[1Nal]PE[2Thi]C[Aib]LIC-NH2; linker 7-11 via mXylylene)",> 1,,
"CC[C@H](C)[C@@H]1NC(=O)[C@H](CC(C)C)NC(=O)[C@@H](CCNC(=O)CN2CCN(CC(=O)O)CCN(CC(=O)O)CCN(CC(=O)O)CC2)NC(=O)[C@@H](NC(=O)[C@@H](CC(C)C)NC(=O)[C@H](CCC(=O)O)NC(=O)[C@@H]2C[C@@H](N)CN2C(=O)[C@H](Cc2c[nH]c3ccc(Cl)cc23)NC(=O)[C@H](Cc2c[nH]c3ccccc23)NC(=O)[C@H](CC(=O)O)NC(=O)CCCC(=O)NC[C@H](O)[C@@H](O)[C@H](O)[C@H](O)CO)CSCc2cccc(n2)CSC[C@@H](C(=O)NC2CCN(CC(=O)N[C@H](CCC(=O)NC[C@H](O)[C@@H](O)[C@H](O)[C@H](O)CO)C(N)=O)CC2)NC1=O [GIP-027, AGLU-Glutar-Asp-Trp-5Clw-Tap-Glu-leu-[Cys(2Lut)-dab(DOTA)-Leu-Ile-Cys]-APAc-glu(AGLU)-NH2] ({NH(1-deoxy-D-glucityl)-Glutaryl}-DW[Trp(5-Cl)][Pro(4R-NH2)]E[dL]C[dDab](DOTA)LIC[X1][dE](NH(1-deoxy-D-glucityl))-NH2; linker 7-11 via Pyridine(2,6-diCH2))",,0.01 to 0.0794,
HO-Succinyl-Trp-5Clw-Hyp-Glu-leu-[Cys(2Lut)-Thp-Leu-Ile-Cys]-APAc-lys(MeO2kDaPEGAc)-Lys(DOTA)-NH2 [GIP-144],,,"pIC50 Category (competition with 20 nM GIP-057, 4° C., 1 hour): B (pIC50 values between 7.1 and 8.0)"
"CC[C@H](C)[C@@H]1NC(=O)[C@H](CC(C)C)NC(=O)C2(CCOCC2)NC(=O)[C@@H](NC(=O)[C@@H](CC(C)C)NC(=O)[C@H](CCC(=O)O)NC(=O)[C@@H]2C[C@@H](O)CN2C(=O)[C@H](Cc2c[nH]c3ccc(Cl)cc23)NC(=O)[C@H](Cc2c[nH]c3ccccc23)NC(=O)[C@H](CC(=O)O)NC(C)=O)CCSC2=C(SC[C@@H](C(N)=O)NC1=O)C(=O)NC2=O [GIP-362, Ac-Asp-Trp-5Clw-Hyp-Glu-leu-[Hcy(mli)-Thp-Leu-Ile-Cys]-NH2] (Ac-DW[Trp(5-Cl)][Hyp]E[dL][hCys][Thp]LIC-NH2; linker 7-11 via Maleimide(3,4-diyl))",0.01 to 0.0794,,
"CC[C@H](C)[C@@H]1NC(=O)[C@H](CC(C)C)NC(=O)C2(CCN(C(=O)CN3CCN(CC(=O)O)CCN(CC(=O)O)CCN(CC(=O)O)CC3)CC2)NC(=O)[C@@H](NC(=O)[C@@H](CC(C)C)NC(=O)[C@H](CCC(=O)O)NC(=O)[C@@H]2C[C@@H](N)CN2C(=O)[C@H](Cc2c[nH]c3ccc(Br)cc23)NC(=O)[C@H](Cc2c[nH]c3ccccc23)NC(=O)[C@H](CC(=O)O)NC(=O)CN2CCC(NC(=O)CCCC(=O)NC[C@H](O)[C@@H](O)[C@H](O)[C@H](O)CO)CC2)CSCc2cccc(n2)CSC[C@@H](C(=O)NC2CCN(CC(=O)N[C@H](CCC(=O)NC[C@H](O)[C@@H](O)[C@H](O)[C@H](O)CO)C(N)=O)CC2)NC1=O [GIP-014, AGLU-Glutar-APAc-Asp-Trp-5Brw-Tap-Glu-leu-[Cys(2Lut)-Apc(DOTA)-Leu-Ile-Cys]-APAc-glu(AGLU)-NH2] ({NH(1-deoxy-D-glucityl)-Glutaryl}-[X1]DW[Trp(5-Br)][Pro(4R-NH2)]E[dL]C[Api](DOTA)LIC[X1][dE](NH(1-deoxy-D-glucityl))-NH2; linker 8-12 via Pyridine(2,6-diCH2))",,,"IC50 (pIC50 Category, competition with 20 nM GIP-057, 4° C., 1 hour): < 0.01 µM"
"CC[C@H](C)[C@@H]1NC(=O)[C@H](CC(C)C)NC(=O)C2(CCOCC2)NC(=O)[C@@H](NC(=O)[C@@H](CC(C)C)NC(=O)[C@H](CCC(=O)O)NC(=O)[C@@H]2C[C@@H](O)CN2C(=O)[C@H](Cc2c[nH]c3ccc(Cl)cc23)NC(=O)[C@H](Cc2c[nH]c3ccccc23)NC(=O)[C@H](CC(=O)O)NC(=O)[C@@H](CCC(=O)NC[C@H](O)[C@@H](O)[C@H](O)[C@H](O)CO)NC(=O)CN2CCN(CC(=O)O)CCN(CC(=O)O)CCN(CC(=O)O)CC2)CSCc2cccc(n2)CSC[C@@H](C(=O)NC2CCN(CC(=O)N[C@H](CCC(=O)NC[C@H](O)[C@@H](O)[C@H](O)[C@H](O)CO)C(N)=O)CC2)NC1=O [GIP-036, DOTA-glu(AGLU)-Asp-Trp-5Clw-Hyp-Glu-leu-[Cys(2Lut)-Thp-Leu-Ile-Cys]-APAc-glu(AGLU)-NH2] ({DOTA}-[dE](NH(1-deoxy-D-glucityl))DW[Trp(5-Cl)][Hyp]E[dL]C[Thp]LIC[X1][dE](NH(1-deoxy-D-glucityl))-NH2; linker 8-12 via Pyridine(2,6-diCH2))",,< 0.01,
"CC[C@H](C)[C@@H]1NC(=O)C(C)(C)NC(=O)[C@H](CCC(=O)O)NC(=O)[C@@H](NC(=O)[C@H](CC(C)C)NC(=O)[C@H](Cc2c[nH]c3ccccc23)NC(=O)[C@H](Cc2c[nH]c3ccc(Cl)cc23)NC(=O)[C@@H]2CCCN2C(=O)[C@H](CC(=O)O)NC(=O)[C@@H](CC(C)C)NC(=O)CCC(=O)NCCCOCCOCCOCCCNC(=O)CN2CCN(CC(=O)O)CCN(CC(=O)O)CCN(CC(=O)O)CC2)CSCc2cccc(c2)CSCCNC1=O [GIP-305, DOTA-Ttds-leu-Asp-Pro-5Clw-Trp-Leu-[Cys(3MeBn)-Glu-Aib-Ile-AET]] ({X3-Suc}-[dL]DP[Trp(5-Cl)]WLCE[Aib]I; linker 7-C via X7)",> 1,,
